Key:
Assay in all cases: relative viability (nuclei count vs DMSO), 5 days (fraction); higher = more cells survive
Metformin + Foretinib = compound: CN(C)C(=N)NC(=N)N [Metformin] + COc1cc2c(Oc3ccc(NC(=O)C4(C(=O)Nc5ccc(F)cc5)CC4)cc3F)ccnc2cc1OCCCN1CCOCC1 [Foretinib] (partner 0.25 µM)
Procedure, shortened: (§1)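 Lung cancer cell lines were pin-tool dosed in 1536-well plates on the day after seeding, with either a lone drug or a fixed anchor-drug dose plus five library-drug doses (not always all listed) in √10 steps. Nuclei were counted on 4× images after 5 days. Relative viability is the ratio of treated-well to vehicle-well nuclei counts, with each value a median of duplicate plates.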

Apatinib + Tozasertib = compound: N#CC1(c2ccc(NC(=O)c3cccnc3NCc3ccncc3)cc2)CCCC1 [Apatinib] + Cc1cc(Nc2cc(N3CCN(C)CC3)nc(Sc3ccc(NC(=O)C4CC4)cc3)n2)n[nH]1 [Tozasertib] (partner 0.1 µM)
Procedure, shortened: as §1

Metformin + Pictilisib = compound: CN(C)C(=N)NC(=N)N [Metformin] + CS(=O)(=O)N1CCN(Cc2cc3nc(-c4cccc5[nH]ncc45)nc(N4CCOCC4)c3s2)CC1 [Pictilisib] (partner 1 µM)
Procedure, shortened: as §1

Apatinib + Olaparib = compound: N#CC1(c2ccc(NC(=O)c3cccnc3NCc3ccncc3)cc2)CCCC1 [Apatinib] + O=C(c1cc(Cc2n[nH]c(=O)c3ccccc23)ccc1F)N1CCN(C(=O)C2CC2)CC1 [Olaparib] (partner 8 µM)
Procedure, shortened: as §1

Cell Line	relative viability (Metformin + Foretinib; first compound 10 µM)	relative viability (Metformin + Foretinib; first compound 31.62 µM)	relative viability (Metformin + Foretinib; first compound 100 µM)	relative viability (Metformin + Foretinib; first compound 316.23 µM)	relative viability (Metformin + Foretinib; first compound 1000 µM)	relative viability (Apatinib + Tozasertib; first compound 0.08 µM)	relative viability (Apatinib + Tozasertib; first compound 0.253 µM)	relative viability (Apatinib + Tozasertib; first compound 0.8 µM)	relative viability (Apatinib + Tozasertib; first compound 2.53 µM)	relative viability (Apatinib + Tozasertib; first compound 8 µM)	relative viability (Metformin + Pictilisib; first compound 10 µM)	relative viability (Metformin + Pictilisib; first compound 31.62 µM)	relative viability (Metformin + Pictilisib; first compound 100 µM)	relative viability (Metformin + Pictilisib; first compound 316.23 µM)	relative viability (Metformin + Pictilisib; first compound 1000 µM)	relative viability (Apatinib + Olaparib; first compound 0.08 µM)	relative viability (Apatinib + Olaparib; first compound 0.253 µM)	relative viability (Apatinib + Olaparib; first compound 0.8 µM)	relative viability (Apatinib + Olaparib; first compound 2.53 µM)	relative viability (Apatinib + Olaparib; first compound 8 µM)
HCC-78	0.752	0.674	0.894	0.662	0.79	0.477	0.333	0.535	0.289	0.317	0.291	0.257	0.201	0.159	0.244	0.803	0.696	0.878	0.711	0.768
UMC-11	1.14	1.09	1.05	1.1	1.07	0.193	0.194	0.198	0.211	0.198	0.864	0.972	0.806	0.716	0.902	1.14	0.411	0.397	0.328	0.365
NCI-H3122	0.946	0.951	0.944	0.806	0.919	0.551	0.368	0.432	0.374	0.367	0.488	0.588	0.459	0.437	0.5	0.609	0.655	0.525	0.613	0.597
BEN	1.08	1.25	1.04	0.799	1.33	0.551	0.601	0.492	0.452	0.42	0.831	0.754	0.626	0.625	0.769	1.35	1.24	1.13	0.987	0.774
LU99A	0.57	0.676	0.643	0.596	0.677	0.325	0.317	0.276	0.231	0.203	0.248	0.295	0.247	0.27	0.241	0.286	0.269	0.276	0.252	0.207
EKVX	0.456	1.03	0.886		0.303	0.369	0.404	0.395	0.224	0.135	0.404	0.392	0.453	0.414	0.392	0.801	0.793	0.88	0.734	0.587
NCI-H1437	1.3	1.31	1.32	1.29	1.21	0.453	0.461	0.393	0.333	0.281	0.671	0.729	0.406	0.629	0.757	0.61	0.663	0.57	0.574	0.496
A-427	1.12	1.2	0.954	0.981	1.23	0.178	0.241	0.175	0.188	0.147	0.79	0.896	0.713	0.68	0.763	0.66	0.71	0.73	0.641	0.612
SK-LU-1	0.807	0.77	0.769	0.69	0.79	0.337	0.436	0.28	0.275	0.243	0.543	0.554	0.674	0.685	0.719	0.503	0.453	0.435	0.549	0.436
NCI-H2405	0.936	1.06	1.11	1.01	1.09	0.911	0.759	0.685	0.607	0.604	0.469	0.518	0.322	0.373	0.389	0.916	0.883	0.837	0.821	0.752
LK-2	1.72	1.93	1.79	1.28		0.159	0.195	0.183	0.152	0.175	0.707	0.757	0.811	0.61	0.769	0.903	0.581	0.64	0.63	0.515
LOU-NH91	1.03	1.02	1.03	0.972	1.06	0.741	0.729	0.618	0.601	0.546	0.555	0.469	0.53	0.496	0.549	0.976	0.885	0.783	0.87	0.825
COR-L 105	1.23	1.38	1.23	1.14	0.791	0.387	0.313	0.355	0.351	0.304	0.401	0.488	0.478	0.463	0.333	0.794	0.802	0.737	0.543	0.672
NCI-H1650	1.41	1.34	1.42	1.3	1.18		0.334	0.329	0.257	0.26	0.791	0.702	0.721	0.607	0.504	0.827	0.787	0.799	0.761	0.696
H3255	0.863	0.96	0.91	0.747	0.877	0.775	0.697	0.795	0.521	0.435	0.388	0.53	0.4	0.46	0.478	0.621	0.627	0.609	0.516	0.455
NCI-H2228	0.804	0.862	1.09	0.671	0.768	0.268	0.221	0.225	0.164	0.0952	0.306	0.294		0.227	0.448	0.837	0.754	0.456	0.58	0.323
